The conditions of the data set: Crystal; Adiabatic calorimetry.

In the NIST ThermoML archive (doi:10.1016/j.jct.2016.07.012) one finds Triple point temperature data, which are given here for one molecule.

Numbers after ± are expanded uncertainties.

`CCCCn1cc[n+](C)c1.F[P-](F)(F)(F)(F)F` [1-butyl-3-methylimidazolium hexafluorophosphate]: the Triple point temperature came out at 283.55 ± 0.05 K.
